From US20120016011A1, “RNA Interference Mediated Inhibition of Connective Tissue Growth Factor (CTGF) Gene Expression Using Short Interfering Nucleic Acid (siNA)” (Merck Sharp & Dohme Corp., priority 2009, published 2012)
[invAb] = inverted abasic unit; m = 2'-O-methyl; r = 2'-OH (RNA); f = 2'-fluoro

Assays:
CTGF mRNA [1] = experiment: CTGF mRNA knockdown (Taqman RT-PCR) after siNA transfection of mouse NIH 3T3 cells; format: cell-based; conditions: mouse NIH3T3 cells, 10 nM siNA, 24 hrs, average of 3 experiments, vs non-targeting control
Procedure: NIH 3T3 (mouse; ATCC cat# CRL-1658): Cells were cultured at 37° C. in the presence of 5% CO2 and grown in Dulbecco's modified Eagle's medium (DMEM) with 4 mM L-glutamine adjusted to contain 1.5 g/L sodium bicarbonate and 4.5 g/L glucose and supplemented with fetal bovine serum at a final concentration of 10%, 100 μg/mL of streptomycin, and 100 U/mL penicillin.
(§1) Cells were plated in all wells of a tissue-culture treated, 96-well plate at a final count of 5000 cells/well in […], of the appropriate culture media. The cells were cultured for 24 hours after plating at 37° C. in the presence of 5% CO2.
(§2) After 24 hours, complexes containing siNA and RNAiMax were created as follows: A solution of RNAiMax diluted 33-fold in OPTI-MEM was prepared. In parallel, solutions of the siNAs for testing were prepared to a final concentration of 120 nM in OPTI-MEM. After incubation of RNAiMax/OPTI-MEM solution at room temperature for 5 min, an equal volume of the siNA solution and the RNAiMax solution were added together for each of the siNAs.
(§3) This solution was incubated at room temperature for 20 minutes. After incubation, 20 uL of the solution was added to each of the relevant wells. The final concentration of siNA in each well was 10 nM and the final volume of RNAiMax in each well was 0.3 ul.
(§4) The time of incubation with the RNAiMax-siNA complexes was 24 hours and there was no change in media between transfection and harvesting, unless otherwise indicated.
(§5) RNA was extracted from a 96-well plate using the TaqMan® Gene Expression Cells-to-CT™ Kit (Cat# 4399002) with a modified protocol. Briefly, a 60 uL (1 plate) or 110 uL (2 plates) of the Lysis Solution with DNase I was dispensed into each well of the Lysis Buffer Plate (twin.tec full skirt plate). The lysis buffer and stop plates were stored at 4° C. until the cells were washed.
(§6) The plate was spun at 1100 rpm for 5 minutes. The culture medium was aspirated and discarded from the wells of the culture plate. The lysis was performed automatically using a BioMek FX instrument and method. After the Biomek method was completed, the lysis plate was incubated for 2 min. at room temperature. The lysis plate can be stored for 2 hours at 4° C., or at −20° C. or −80° C. for two months.
(§7) Each well of the reverse transcription plate required 10 uL of 2× reverse transcriptase Buffer, 1 uL of 20× reverse transcription enzyme and 2 uL of nuclease-free water. The reverse transcription master mix was prepared by mixing 2× reverse transcription buffer, 20× reverse transcription enzyme mix, and nuclease-free water. 13 uL of the reverse transcription master mix was dispensed into each well of the reverse transcription plate (semi-skirted). A separate reverse transcription plate was prepared for each cell plate. The plate was loaded onto a Biomek NX or Biomek FX Dual -96 and the Biomek method was run. The program is programmed to automatically added 7 uL of lysate from the cell lysis procedure described above into each well of the reverse transcription plate. The plate is sealed and spun on a centrifuge (1000 rpm for 30 seconds) to settle the contents to the bottom of the reverse transcription plate. The plate is placed in a thermocycler at 37° C. for 60 min, 95° C. for 5 min, and 4° C. until the plate is removed from the thermocycler. Upon removal, if not used immediately, the plate was frozen at −20° C.
(§8) A series of probes and primers were used to detect the various mRNA transcripts of the genes of β-Actin (human cell line only), and of CTGF and GAPDH in mouse and human cell lines. All Taqman probes and primers for the experiments here-in described were supplied as pre-validated sets by Applied Biosystems, Inc. (see Table 3).
The assays were performed on an ABI 7900 instrument, according to the manufacturer's instructions. A TaqMan Gene Expression Master Mix (provided in the Cells-to-CT™, Applied Biosystems, Cat # 4399002) was used. […]

CTGF mRNA [2] = experiment: CTGF mRNA knockdown (Taqman RT-PCR) after siNA transfection of human NHLF cells; format: cell-based; conditions: 10 nM siNA, 24 hrs, average of 3 experiments, vs non-targeting control
Procedure: NHLF (Normal human lung fibroblasts; Lonza cat# CC-2512): Cells were cultured at 37° C. in the presence of 5% CO2 and grown in Fibroblast Basal Medium (Lonza cat# CC-3132) supplemented with 2% FBS and growth factors (provided with the kit) and 100 μg/mL of streptomycin and 100 U/mL penicillin.
as §1, §2, §3, §4, §5, §6, §7, §8
The assays were performed on an ABI 7900 instrument, according to the manufacturer's instructions. A TaqMan Gene Expression Master Mix (provided in the Cells-to-CT™, Applied Biosystems, Cat # 4399002) was used. The PCR reactions were carried out at 50° C. for 2 min, 95° C. for 20 min followed by 40 cycles at 95° C. for 15 secs and 60° C. for 1 min. […]

## 48039-DC: siNA duplex; sense SEQ ID NO: 43 B ccuAucAAGuuuGAGcuuu TTB; antisense SEQ ID NO: 44 AAAGcucAAAcuuGAuAGGUU
CTGF mRNA [1]
  % KD Mouse: 21±7%
CTGF mRNA [2]
  % KD Human: 81 ± 3%

## 48040-DC: siNA duplex; sense SEQ ID NO: 45 B GAGuGGAGcGccuGuuccA TTB; antisense SEQ ID NO: 46 UGGAAcAGGcGcuccAcucUU (sense GAGUGGAGCGCCUGUUCCATT; antisense UGGAACAGGCGCUCCACUCUU; sense: DNA at AGT, 2'-fluoro at CU, [invAb] at 5' end, 3' end, backbone not given here; antisense: sugars from the 5' end rrrmmfmmmfmffffmfffmm, backbone not given here)
CTGF mRNA [1]
  % KD Mouse: −1 ± 3%
CTGF mRNA [2]
  % KD Human: 13 ± 18%

## 48041-DC: siNA duplex; sense SEQ ID NO: 47 B GAuucccAcccAAuucAAA TTB; antisense SEQ ID NO: 48 UUUGAAuuGGGuGGGAAucUU (sense GAUUCCCACCCAAUUCAAATT; antisense UUUGAAUUGGGUGGGAAUCUU; sense: DNA at AGT, 2'-fluoro at CU, [invAb] at 5' end, 3' end, backbone not given here; antisense: sugars from the 5' end rrrmmmffmmmfmmmmmffmm, backbone not given here)
CTGF mRNA [1]
  % KD Mouse: 13 ± 3%
CTGF mRNA [2]
  % KD Human: 73±4%

## 48043-DC: siNA duplex; sense SEQ ID NO: 51 B GAcAuAccGAGcuAAAuuc TTB; antisense SEQ ID NO: 52 GAAuuuAGcucGGuAuGucUU (sense GACAUACCGAGCUAAAUUCTT; antisense GAAUUUAGCUCGGUAUGUCUU; sense: DNA at AGT, 2'-fluoro at CU, [invAb] at 5' end, 3' end, backbone not given here; antisense: sugars from the 5' end rrrfffmmfffmmfmfmffmm, backbone not given here)
CTGF mRNA [1]
  % KD Mouse: 48 ± 0%
CTGF mRNA [2]
  % KD Human: 57 ± 7%

## 48044-DC: siNA duplex; sense SEQ ID NO: 53 B GuGuGcAccGccAAAGAuG TTB; antisense SEQ ID NO: 54 CAUcuuuGGcGGuGcAcAcUU (sense GUGUGCACCGCCAAAGAUGTT; antisense CAUCUUUGGCGGUGCACACUU; sense: DNA at AGT, 2'-fluoro at CU, [invAb] at 5' end, 3' end, backbone not given here; antisense: sugars from the 5' end rrrffffmmfmmfmfmfmfmm, backbone not given here)
CTGF mRNA [1]
  % KD Mouse: −18 ± 5%
CTGF mRNA [2]
  % KD Human: −16 ± 8%

## 48045-DC: siNA duplex; sense SEQ ID NO: 55 B cuGAcGGcGAGGucAuGAA TTB; antisense SEQ ID NO: 56 UUCAuGAccucGccGucAGUU (sense CUGACGGCGAGGUCAUGAATT; antisense UUCAUGACCUCGCCGUCAGUU; sense: DNA at AGT, 2'-fluoro at CU, [invAb] at 5' end, 3' end, backbone not given here; antisense: sugars from the 5' end rrrmfmmffffmffmffmmmm, backbone not given here)
CTGF mRNA [1]
  % KD Mouse: 19 ± 4%
CTGF mRNA [2]
  % KD Human: 18 ± 4%

## 48049-DC: siNA duplex; sense SEQ ID NO: 63 B cGuGuGcAccGccAAAGAu TTB; antisense SEQ ID NO: 64 AUCuuuGGcGGuGcAcAcGUU (sense CGUGUGCACCGCCAAAGAUTT; antisense AUCUUUGGCGGUGCACACGUU; sense: DNA at AGT, 2'-fluoro at CU, [invAb] at 5' end, 3' end, backbone not given here; antisense: sugars from the 5' end rrrfffmmfmmfmfmfmfmmm, backbone not given here)
CTGF mRNA [1]
  % KD Mouse: −9 ± 6%
CTGF mRNA [2]
  % KD Human: 27 ± 2%
